Experimental data reported in ChEMBL document CHEMBL1201862, “PubChem BioAssay data set” (2004).
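Each compound was tested at five concentrations against cells in 96-well plates for 48 hours. GI50 marks 50% less growth.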 Activity calls are given as the source filed them. No stated cut-off is given here; in the data, active = GI50 up to about 1.1 µM and inactive = higher. Numbered stars: 1 amine (or outer) side, 2 acyl side, 3 side chain; on linkers, the order of the positions; unused ones are H or OH. Square brackets hold non-standard residues; d marks the D form. Peptide text beside a SMILES is read from it. X55 = CC[C@H](C)[C@H](OC(=O)[C@@H](C)[C@@H](CC)N[*:1])C(=O)[*:2]; X31 = C[C@H](N[*:1])C(=O)C(C)(C)C(=O)[*:2]; NMeY = CN[C@@H](Cc1ccc(O)cc1)C(=O)O; NMeL = CN[C@@H](CC(C)C)C(=O)O; NMeV = CN[C@H](C(=O)O)C(C)C

What was measured:
Test in all cases: DTP human tumour cell line panel, 48 h
786-0 = system: 786-0
A498 = system: A498
DU-145 = system: DU-145
HL-60 = system: HL-60
IGROV-1 = system: IGROV-1
K562 = system: K562
LOX IMVI = system: LOX IMVI
M14 = system: M14
MCF7 = system: MCF7
MDA-MB-231 = system: MDA-MB-231
MDA-MB-435 = system: MDA-MB-435
NCI-H23 = system: NCI-H23
OVCAR-8 = system: OVCAR-8
RPMI-8226 = system: RPMI-8226
SF-268 = system: SF-268
SF-295 = system: SF-295
SF-539 = system: SF-539
SW-620 = system: SW-620
TK-10 = system: TK-10
U-251 = system: U-251

Measured: GI50

COC(=O)[C@@H]1[C@H]2CC[C@]3(C)[C@@H](OC(C)=O)CC[C@H]3[C@@H]2CC[C@H]1C(C)=O
inactive: 786-0 > 100 µM | A498 > 100 µM | DU-145 > 100 µM | HL-60 > 100 µM | IGROV-1 > 100 µM | K562 > 100 µM | LOX IMVI > 100 µM | M14 > 100 µM | MCF7 > 100 µM | MDA-MB-231 > 100 µM | MDA-MB-435 > 100 µM | NCI-H23 > 100 µM | OVCAR-8 > 100 µM | RPMI-8226 > 100 µM | SF-268 > 100 µM | SF-295 > 100 µM | SF-539 > 100 µM | SW-620 > 100 µM | TK-10 > 100 µM | U-251 > 100 µM

Cc1nc(-c2ccc([N+](=O)[O-])cc2)cn2c1nc1ccccc12
inactive: 786-0 71 µM | A498 > 100 µM | DU-145 > 100 µM | HL-60 > 100 µM | IGROV-1 > 100 µM | K562 > 100 µM | LOX IMVI > 100 µM | M14 70.3 µM | MCF7 58.3 µM | MDA-MB-231 > 100 µM | MDA-MB-435 > 100 µM | NCI-H23 > 100 µM | OVCAR-8 > 100 µM | RPMI-8226 > 100 µM | SF-268 > 100 µM | SF-295 76.9 µM | SF-539 > 100 µM | SW-620 > 100 µM | TK-10 97.5 µM | U-251 40.2 µM

CC1=C2NCN(C)N=C2C(C#N)(C#N)C1(C#N)C#N
inactive: 786-0 19.5 µM | A498 41.3 µM | DU-145 42.3 µM | HL-60 1.93 µM | IGROV-1 24.8 µM | K562 3.78 µM | LOX IMVI 20.8 µM | M14 23.8 µM | MCF7 19.8 µM | MDA-MB-231 19.6 µM | MDA-MB-435 21.7 µM | NCI-H23 14.1 µM | OVCAR-8 27 µM | RPMI-8226 10.9 µM | SF-268 32.2 µM | SF-295 > 100 µM | SF-539 27 µM | SW-620 10.2 µM | TK-10 16.4 µM | U-251 28.9 µM

CC(C)CCOC(=O)NC(Nc1ccc(F)cc1)(C(F)(F)F)C(F)(F)F
active: K562 0.695 µM
inactive: 786-0 > 100 µM | A498 42.9 µM | DU-145 7.36 µM | HL-60 12.9 µM | IGROV-1 38.2 µM | LOX IMVI 40.9 µM | M14 6.62 µM | MCF7 23.2 µM | MDA-MB-231 7.91 µM | MDA-MB-435 13.7 µM | NCI-H23 33.4 µM | OVCAR-8 51.8 µM | RPMI-8226 22.1 µM | SF-268 34.1 µM | SF-295 > 100 µM | SF-539 16.1 µM | SW-620 19 µM | TK-10 29.7 µM | U-251 27.3 µM

COc1ccc(OC)c2c1C1CCC(=O)N1CN2C(C)=O (stereo not given)
inactive: 786-0 > 100 µM | A498 > 100 µM | DU-145 > 100 µM | HL-60 > 100 µM | IGROV-1 > 100 µM | K562 > 100 µM | LOX IMVI > 100 µM | M14 > 100 µM | MCF7 > 100 µM | MDA-MB-231 > 100 µM | MDA-MB-435 > 100 µM | NCI-H23 > 100 µM | OVCAR-8 > 100 µM | RPMI-8226 > 100 µM | SF-268 75.5 µM | SF-295 > 100 µM | SF-539 > 100 µM | SW-620 > 100 µM | TK-10 > 100 µM | U-251 > 100 µM

CC[C@H](C)[C@@H]1OC(=O)[C@@H](C)[C@@H](CC)NC(=O)[C@H](C)NC(=O)C(C)(C)C(=O)[C@H](C)NC(=O)[C@H](Cc2ccc(OC)cc2)N(C)C(=O)[C@H](C(C)C)N(C)C(=O)CNC(=O)[C@H](CC(C)C)N(C)C(=O)CNC1=O [DOLASTATIN 11] (cyclo(A[X55]G[NMeL]G[NMeV][NMeY](Me)[X31]))
active: 786-0 0.0304 µM | A498 0.118 µM | DU-145 0.118 µM | HL-60 0.0117 µM | IGROV-1 0.0355 µM | K562 0.0885 µM | LOX IMVI 0.01 µM | M14 < 0.0148 µM | MCF7 0.0592 µM | MDA-MB-231 0.0632 µM | MDA-MB-435 0.0603 µM | NCI-H23 0.071 µM | OVCAR-8 0.101 µM | RPMI-8226 0.115 µM | SF-268 0.082 µM | SF-295 0.0838 µM | SF-539 0.0122 µM | SW-620 0.286 µM | TK-10 0.0713 µM | U-251 0.0158 µM

c1ccc2c(c1)Sc1ccccc1N2CC1CN2CCC1CC2 (stereo not given) [MEQUITAZINE]
inactive: 786-0 6.24 µM | A498 11.7 µM | DU-145 6.73 µM | HL-60 3.57 µM | IGROV-1 11.2 µM | K562 2.11 µM | LOX IMVI 3.08 µM | M14 1.87 µM | MCF7 3.4 µM | MDA-MB-231 3.8 µM | MDA-MB-435 2.8 µM | NCI-H23 13 µM | OVCAR-8 13.4 µM | RPMI-8226 2.99 µM | SF-268 7.36 µM | SF-295 15.7 µM | SF-539 8.32 µM | SW-620 3.58 µM | TK-10 6.41 µM | U-251 4.24 µM
